Where two headings read alike, the source gives them in different places.
Tests used:
EGFR wildtype (WT) = EGFR wildtype (WT) (Homo sapiens, UniProt P00533); test: Biochemical EGFR kinase inhibition assay (Lance Ultra TR-FRET), wildtype
Description: (§1) Biochemical EGFR kinase assays were conducted using Lance Ultra time-resolved fluorescence resonance energy transfer (TR-FRET) technology from Perkin-Elmer. Compounds of the invention were initially diluted to 20 mM in 100% DMSO for storage and made into kinase buffer solution to create a compound concentration ranging from 0.003 μM and 10 μM.
(§2) Each kinase reactions were incubated at room temperature for 1 hour and then stopped by the addition of 4 μL of stop solution (10 mM EDTA). The specific Europium-labeled-anti-phosphopeptide antibody (PerkinElmer, AD0069) diluted in LANCE detection buffer was then added to a final concentration of 2 nM. After 60 minutes incubation at room temperature the LANCE signal was measured on an EnVision Multilabel Reader (Perkin-Elmer). Excitation wavelength was set at 320 nm and emission monitored at 615 nm (donor) and 665 nm (acceptor). The IC50 values were determined using GraphPad prism software (GraphPad Software, Inc., San Diego, CA, USA).

EGFR L858R/C797S = EGFR L858R/C797S (Homo sapiens, UniProt P00533, C797S/L858R); test: Biochemical EGFR kinase inhibition assay (Lance Ultra TR-FRET), double mutant L858R/C797S
Description: as §1, §2

EGFR Del19/T790M/C797S = EGFR Del19/T790M/C797S (Homo sapiens, UniProt P00533, C797S/DEL746-750/T790M); test: Biochemical EGFR kinase inhibition assay (Lance Ultra TR-FRET), triple mutant del19/T790M/C797S
Description: as §1, §2

EGFR L858R/T790M/C797S = EGFR L858R/T790M/C797S (Homo sapiens, UniProt P00533, C797S/L858R/T790M); test: Biochemical EGFR kinase inhibition assay (Lance Ultra TR-FRET), triple mutant L858R/T790M/C797S
Description: as §1, §2

EGFR Del19/C797S = EGFR Del19/C797S (Homo sapiens, UniProt P00533, C797S/DEL746-750); test: Biochemical EGFR kinase inhibition assay (Lance Ultra TR-FRET), double mutant del19/C797S
Description: as §1, §2

[1] = IC50 L858R/C797S (nM), 100 μM ATP
[2] = IC50 Del19/T790M/C797S (nM), 100 μM ATP
[3] = IC50 L858R/T790M/C797S (nM), 100 μM ATP
[4] = IC50 Del19/C797S (nM), 100 μM ATP
[5] = Km ATP, read-out: IC50 WT (nM) Km ATP
[6] = Km ATP, read-out: IC50 L858R/C797S (nM) Km ATP
[7] = Km ATP, read-out: IC50 Del19/T790M/C797S (nM) Km ATP
[8] = Km ATP, read-out: IC50 L858R/T790M/C797S (nM) Km ATP
[9] = Km ATP, read-out: IC50 Del19/C797S (nM) Km ATP

Chain of EGFR wildtype (WT) (P00533 25-1210): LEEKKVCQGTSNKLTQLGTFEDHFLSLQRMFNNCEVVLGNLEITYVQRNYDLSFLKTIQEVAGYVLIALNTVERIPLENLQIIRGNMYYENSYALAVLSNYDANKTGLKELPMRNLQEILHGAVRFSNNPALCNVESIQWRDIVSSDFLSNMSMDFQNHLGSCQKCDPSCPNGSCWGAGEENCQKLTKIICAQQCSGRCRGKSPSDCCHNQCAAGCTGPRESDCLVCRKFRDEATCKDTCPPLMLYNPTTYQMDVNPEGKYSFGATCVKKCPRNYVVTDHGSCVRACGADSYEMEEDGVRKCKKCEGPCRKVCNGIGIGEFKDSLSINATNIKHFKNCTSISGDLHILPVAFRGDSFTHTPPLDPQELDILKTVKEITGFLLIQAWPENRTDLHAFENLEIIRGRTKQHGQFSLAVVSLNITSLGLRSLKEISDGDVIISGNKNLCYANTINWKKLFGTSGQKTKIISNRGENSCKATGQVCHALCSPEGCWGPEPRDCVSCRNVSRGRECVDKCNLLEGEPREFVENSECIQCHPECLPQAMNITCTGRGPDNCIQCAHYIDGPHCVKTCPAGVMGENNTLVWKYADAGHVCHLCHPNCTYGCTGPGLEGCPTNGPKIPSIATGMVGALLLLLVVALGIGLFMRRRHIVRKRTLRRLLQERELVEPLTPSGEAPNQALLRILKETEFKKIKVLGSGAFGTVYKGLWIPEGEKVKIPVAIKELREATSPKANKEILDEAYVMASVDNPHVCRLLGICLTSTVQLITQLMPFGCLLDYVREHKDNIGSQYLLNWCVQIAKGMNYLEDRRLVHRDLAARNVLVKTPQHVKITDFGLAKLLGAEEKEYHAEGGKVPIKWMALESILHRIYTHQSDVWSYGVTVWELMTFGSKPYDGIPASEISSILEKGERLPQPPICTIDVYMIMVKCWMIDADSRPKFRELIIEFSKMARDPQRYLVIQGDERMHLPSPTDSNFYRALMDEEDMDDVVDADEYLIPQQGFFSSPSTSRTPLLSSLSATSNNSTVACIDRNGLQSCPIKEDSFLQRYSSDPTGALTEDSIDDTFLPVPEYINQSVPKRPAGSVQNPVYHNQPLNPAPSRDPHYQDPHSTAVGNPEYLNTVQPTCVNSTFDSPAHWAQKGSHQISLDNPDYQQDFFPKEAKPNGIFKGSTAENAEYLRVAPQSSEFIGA
Chain of EGFR Del19/T790M/C797S (P00533 with tags, fused parts or gaps DEL746-750/T790M/C797S): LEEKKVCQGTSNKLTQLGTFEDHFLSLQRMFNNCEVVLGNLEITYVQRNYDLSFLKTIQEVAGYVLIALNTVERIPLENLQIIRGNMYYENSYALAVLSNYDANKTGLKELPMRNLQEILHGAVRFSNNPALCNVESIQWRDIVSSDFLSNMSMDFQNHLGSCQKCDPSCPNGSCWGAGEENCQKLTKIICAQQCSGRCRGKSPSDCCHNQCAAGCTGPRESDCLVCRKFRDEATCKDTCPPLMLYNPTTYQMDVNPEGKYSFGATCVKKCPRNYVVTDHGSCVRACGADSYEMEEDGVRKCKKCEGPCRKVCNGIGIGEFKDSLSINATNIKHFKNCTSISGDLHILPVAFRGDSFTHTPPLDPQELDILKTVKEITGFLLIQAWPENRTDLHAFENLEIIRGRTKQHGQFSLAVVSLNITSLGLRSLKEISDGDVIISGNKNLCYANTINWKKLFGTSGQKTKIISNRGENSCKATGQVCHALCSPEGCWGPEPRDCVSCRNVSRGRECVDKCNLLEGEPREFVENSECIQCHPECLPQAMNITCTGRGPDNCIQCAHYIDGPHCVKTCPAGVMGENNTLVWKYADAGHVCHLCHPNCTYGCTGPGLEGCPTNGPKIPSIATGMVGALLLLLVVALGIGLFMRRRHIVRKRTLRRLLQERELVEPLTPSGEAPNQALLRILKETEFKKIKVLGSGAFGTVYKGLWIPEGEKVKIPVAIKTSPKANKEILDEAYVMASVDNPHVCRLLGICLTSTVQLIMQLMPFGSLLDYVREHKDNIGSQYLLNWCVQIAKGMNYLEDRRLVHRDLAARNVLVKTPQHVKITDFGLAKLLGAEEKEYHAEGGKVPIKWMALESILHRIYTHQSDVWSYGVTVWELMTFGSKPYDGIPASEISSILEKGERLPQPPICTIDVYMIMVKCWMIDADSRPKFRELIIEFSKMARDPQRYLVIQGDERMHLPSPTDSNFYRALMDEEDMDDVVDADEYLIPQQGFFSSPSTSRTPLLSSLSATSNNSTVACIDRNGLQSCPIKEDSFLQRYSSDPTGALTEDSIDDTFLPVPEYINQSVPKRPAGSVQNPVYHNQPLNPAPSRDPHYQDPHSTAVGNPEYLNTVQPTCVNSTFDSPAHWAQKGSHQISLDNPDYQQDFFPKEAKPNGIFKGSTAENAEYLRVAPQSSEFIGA
Chain of EGFR Del19/C797S (P00533 with tags, fused parts or gaps DEL746-750/C797S): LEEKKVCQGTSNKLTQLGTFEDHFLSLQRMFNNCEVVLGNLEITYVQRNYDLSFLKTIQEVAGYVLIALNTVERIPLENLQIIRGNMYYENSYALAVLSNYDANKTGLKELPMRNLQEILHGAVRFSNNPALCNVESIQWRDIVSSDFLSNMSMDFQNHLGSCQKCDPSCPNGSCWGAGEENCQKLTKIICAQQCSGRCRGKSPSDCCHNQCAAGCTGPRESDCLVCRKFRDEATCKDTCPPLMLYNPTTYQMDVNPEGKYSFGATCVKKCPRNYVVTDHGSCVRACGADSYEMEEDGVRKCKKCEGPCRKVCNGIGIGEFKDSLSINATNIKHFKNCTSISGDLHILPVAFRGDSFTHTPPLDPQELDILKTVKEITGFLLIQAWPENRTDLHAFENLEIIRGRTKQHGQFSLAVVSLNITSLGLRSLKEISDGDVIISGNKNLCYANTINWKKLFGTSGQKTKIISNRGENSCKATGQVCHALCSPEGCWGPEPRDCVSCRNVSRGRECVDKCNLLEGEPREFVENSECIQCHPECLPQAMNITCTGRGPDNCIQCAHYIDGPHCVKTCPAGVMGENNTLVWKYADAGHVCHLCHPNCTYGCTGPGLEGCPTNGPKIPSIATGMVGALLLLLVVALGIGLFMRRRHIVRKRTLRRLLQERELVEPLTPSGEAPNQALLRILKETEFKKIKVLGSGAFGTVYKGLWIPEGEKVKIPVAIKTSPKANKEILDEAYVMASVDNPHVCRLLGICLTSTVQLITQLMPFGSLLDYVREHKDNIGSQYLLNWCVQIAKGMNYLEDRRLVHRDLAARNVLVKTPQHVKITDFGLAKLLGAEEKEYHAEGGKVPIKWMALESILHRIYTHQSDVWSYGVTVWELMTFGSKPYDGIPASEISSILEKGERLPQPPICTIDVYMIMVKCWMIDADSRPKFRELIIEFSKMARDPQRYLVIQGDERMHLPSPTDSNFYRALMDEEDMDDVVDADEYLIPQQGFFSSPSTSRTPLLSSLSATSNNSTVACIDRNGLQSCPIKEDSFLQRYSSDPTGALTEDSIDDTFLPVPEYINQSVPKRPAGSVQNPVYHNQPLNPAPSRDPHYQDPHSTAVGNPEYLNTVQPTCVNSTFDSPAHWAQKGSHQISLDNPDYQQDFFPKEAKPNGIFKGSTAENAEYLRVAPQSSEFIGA
Chain of EGFR L858R/T790M/C797S (P00533 25-1210 T790M/C797S/L858R): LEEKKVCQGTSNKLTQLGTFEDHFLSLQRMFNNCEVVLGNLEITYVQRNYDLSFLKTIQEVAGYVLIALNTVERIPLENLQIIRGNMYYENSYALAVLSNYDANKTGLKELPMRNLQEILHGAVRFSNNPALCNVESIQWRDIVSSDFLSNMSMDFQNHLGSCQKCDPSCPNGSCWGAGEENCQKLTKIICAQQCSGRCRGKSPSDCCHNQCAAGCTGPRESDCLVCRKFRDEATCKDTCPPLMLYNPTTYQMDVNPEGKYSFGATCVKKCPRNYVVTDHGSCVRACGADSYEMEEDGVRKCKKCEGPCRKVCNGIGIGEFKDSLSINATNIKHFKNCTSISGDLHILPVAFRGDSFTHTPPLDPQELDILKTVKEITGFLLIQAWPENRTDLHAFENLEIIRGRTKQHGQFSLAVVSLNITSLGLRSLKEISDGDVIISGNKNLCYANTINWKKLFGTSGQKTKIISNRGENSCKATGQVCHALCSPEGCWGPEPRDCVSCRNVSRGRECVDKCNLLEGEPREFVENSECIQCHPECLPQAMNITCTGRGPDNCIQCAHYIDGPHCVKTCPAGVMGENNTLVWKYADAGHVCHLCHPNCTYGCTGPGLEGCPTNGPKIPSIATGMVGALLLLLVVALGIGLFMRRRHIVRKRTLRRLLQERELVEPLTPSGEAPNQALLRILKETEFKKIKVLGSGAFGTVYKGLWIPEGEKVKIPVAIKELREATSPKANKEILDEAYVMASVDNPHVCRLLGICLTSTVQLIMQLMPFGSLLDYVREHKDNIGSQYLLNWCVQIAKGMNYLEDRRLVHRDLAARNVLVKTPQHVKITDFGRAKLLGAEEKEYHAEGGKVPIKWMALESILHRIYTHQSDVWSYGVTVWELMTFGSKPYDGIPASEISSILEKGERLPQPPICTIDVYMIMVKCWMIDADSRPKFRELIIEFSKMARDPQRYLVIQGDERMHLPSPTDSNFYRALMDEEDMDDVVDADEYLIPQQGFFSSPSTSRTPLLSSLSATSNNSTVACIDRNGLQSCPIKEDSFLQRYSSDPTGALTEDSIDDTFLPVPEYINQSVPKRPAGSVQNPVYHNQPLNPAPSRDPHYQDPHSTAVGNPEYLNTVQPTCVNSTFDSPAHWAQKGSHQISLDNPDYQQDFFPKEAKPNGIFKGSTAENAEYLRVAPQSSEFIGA

Structure (SMILES)	IC50 (EGFR wildtype (WT); IC50 WT (nM), 100 μM ATP) [nM]	IC50 (EGFR L858R/C797S; [1]) [nM]	IC50 (EGFR Del19/T790M/C797S; [2]) [nM]	IC50 (EGFR L858R/T790M/C797S; [3]) [nM]	IC50 (EGFR Del19/C797S; [4]) [nM]	IC50 (EGFR wildtype (WT); [5]) [nM]	IC50 (EGFR L858R/C797S; [6]) [nM]	IC50 (EGFR Del19/T790M/C797S; [7]) [nM]	IC50 (EGFR L858R/T790M/C797S; [8]) [nM]	IC50 (EGFR Del19/C797S; [9]) [nM]
Cn1cc(C#Cc2cnc(Nc3ccnc(-c4cnn(S(=O)(=O)C5CC5)c4)n3)cc2N2CCCC(O)C2)cn1 (stereo not shown) [Example 6, 1-(2-((2-(1-(Cyclopropylsulfonyl)-1H-pyrazol-4-yl)pyrimidin-4-yl)amino)-5-((1-methyl-1H-pyrazol-4-yl)ethynyl)pyridin-4-yl)piperidin-3-ol]	6020	24.1	0.5	4.2	5.1					
Cn1cc(C#Cc2cnc(Nc3ccnc(-c4cnn(S(=O)(=O)C5CC5)c4)n3)cc2N2CCC(=O)CC2)cn1 [Example 7, 1-(2-((2-(1-(Cyclopropylsulfonyl)-1H-pyrazol-4-yl)pyrimidin-4-yl)amino)-5-((1-methyl-1H-pyrazol-4-yl)ethynyl)pyridin-4-yl)piperidin-4-one]	> 10000	143	4.5	5	24.2					
Cn1cc(C#Cc2cnc(Nc3ccnc(-c4cnn(S(=O)(=O)C5CC5)c4)n3)cc2N2CCC(F)CC2)cn1 [Example 8, 2-(1-(Cyclopropylsulfonyl)-1H-pyrazol-4-yl)-N-(4-(4-fluoropiperidin-1-yl)-5-((1-methyl-1H-pyrazol-4-yl)ethynyl)pyridin-2-yl)pyrimidin-4-amine]	> 10000	33.2	3.1	2.2	9.5					
Cn1cc(C#Cc2cnc(Nc3ccnc(-c4cnn(S(=O)(=O)C5CC5)c4)n3)cc2N2CCCC(CO)C2)cn1 (stereo not shown) [Example 9, (1-(2-((2-(1-(Cyclopropylsulfonyl)-1H-pyrazol-4-yl)pyrimidin-4-yl)amino)-5-((1-methyl-1H-pyrazol-4-yl)ethynyl)pyridin-4-yl)piperidin-3-yl)methanol]	> 10000	27.5	1.9	1.1	3.8	52.8	2.2	0.7	0.4	2.8
CC(O)C1CCN(c2cc(Nc3ccnc(-c4cnn(S(=O)(=O)C5CC5)c4)n3)ncc2C#Cc2cnn(C)c2)CC1 (stereo not shown) [Example 10, 1-(1-(2-((2-(1-(Cyclopropylsulfonyl)-1H-pyrazol-4-yl)pyrimidin-4-yl)amino)-5-((1-methyl-1H-pyrazol-4-yl)ethynyl)pyridin-4-yl)piperidin-4-yl)ethan-1-ol]	> 10000	12.9	0.9	0.7	4.4	31.9	2.8	1.1	0.5	3
Cn1cc(C#Cc2cnc(Nc3ccnc(-c4cnn(S(=O)(=O)C5CC5)c4)n3)cc2N2CCC(C(C)(C)O)CC2)cn1 [Example 11, 2-(1-(2-((2-(1-(Cyclopropylsulfonyl)-1H-pyrazol-4-yl)pyrimidin-4-yl)amino)-5-((1-methyl-1H-pyrazol-4-yl)ethynyl)pyridin-4-yl)piperidin-4-yl)propan-2-ol]	> 10000	28.5	1.6	1.2	9.1					
Cn1cc(C#Cc2cnc(Nc3ccnc(-c4cnn(S(=O)(=O)C5CC5)c4)n3)cc2N2CCC(C)(CO)CC2)cn1 [Example 12, (1-(2-((2-(1-(Cyclopropylsulfonyl)-1H-pyrazol-4-yl)pyrimidin-4-yl)amino)-5-((1-methyl-1H-pyrazol-4-yl)ethynyl)pyridin-4-yl)-4-methylpiperidin-4-yl)methanol]	1100	5.1	0.8	0.6	1.9	6	0.7	0.7	0.3	1.1
Cn1cc(C#Cc2cnc(Nc3ccnc(-c4cnn(S(=O)(=O)C5CC5)c4)n3)cc2N2CCC3(CC2)CC(C)(O)C3)cn1 [Example 13, 7-(2-((2-(1-(Cyclopropylsulfonyl)-1H-pyrazol-4-yl)pyrimidin-4-yl)amino)-5-((1-methyl-1H-pyrazol-4-yl)ethynyl)pyridin-4-yl)-2-methyl-7-azaspiro[3.5]nonan-2-ol]	3090	9.2	1.4	1.1	3.3					
Cn1cc(C#Cc2cnc(Nc3ccnc(-c4cnn(S(=O)(=O)C5CC5)c4)n3)cc2N2CCC(C(C)(C)CO)CC2)cn1 [Example 14, 2-(1-(2-((2-(1-(Cyclopropylsulfonyl)-1H-pyrazol-4-yl)pyrimidin-4-yl)amino)-5-((1-methyl-1H-pyrazol-4-yl)ethynyl)pyridin-4-yl)piperidin-4-yl)-2-methylpropan-1-ol]	> 10000	41	3.9	3	21.7					
COC1CCN(c2cc(Nc3ccnc(-c4cnn(S(=O)(=O)C5CC5)c4)n3)ncc2C#Cc2cnn(C)c2)CC1 [Example 15, 2-(1-(Cyclopropylsulfonyl)-1H-pyrazol-4-yl)-N-(4-(4-methoxypiperidin-1-yl)-5-((1-methyl-1H-pyrazol-4-yl)ethynyl)pyridin-2-yl)pyrimidin-4-amine]	661	25.5	2.6	1.6	6.4					
O=S(=O)(C1CC1)n1cc(-c2nccc(Nc3cc(N4CCC(CCO)CC4)c(C#Cc4cnn(CCF)c4)cn3)n2)cn1 [Example 17, 2-(1-(2-((2-(1-(Cyclopropylsulfonyl)-1H-pyrazol-4-yl)pyrimidin-4-yl)amino)-5-((1-(2-fluoroethyl)-1H-pyrazol-4-yl)ethynyl)pyridin-4-yl)piperidin-4-yl)ethan-1-ol]	> 10000	53.3	2	6.1	10.3					
CC(C)Nc1cc(Nc2ccnc(-c3cnn(S(=O)(=O)C4CC4)c3)n2)ncc1C#Cc1cnn(CCF)c1 [Example 20, N^2-(2-(1-(Cyclopropylsulfonyl)-1H-pyrazol-4-yl)pyrimidin-4-yl)-5-((1-(2-fluoroethyl)-1H-pyrazol-4-yl)ethynyl)-N^4-isopropylpyridine-2,4-diamine]	> 10000		2.4	1.6	61.5	517	20.4	1.2	1.3	23.1
CC(C)Nc1cc(Nc2ccnc(-c3cnn(S(=O)(=O)C4CC4)c3)n2)ncc1C#Cc1cnn(CC(F)F)c1 [Example 23, N^2-(2-(1-(Cyclopropylsulfonyl)-1H-pyrazol-4-yl)pyrimidin-4-yl)-5-((1-(2,2-difluoroethyl)-1H-pyrazol-4-yl)ethynyl)-N^4-isopropylpyridine-2,4-diamine]						907	92.5	1.6	7.1	77.7
Cn1cc(C#Cc2cnc(Nc3ccnc(-c4cnn(S(=O)(=O)C5CC5)c4)n3)cc2N2CCC(O)CC2)cn1 [Example 27, 1-(2-((2-(1-(Cyclopropylsulfonyl)-1H-pyrazol-4-yl)pyrimidin-4-yl)amino)-5-((1-methyl-1H-pyrazol-4-yl)ethynyl)pyridin-4-yl)piperidin-4-ol]	> 10000	27.8	0.6	1.5	4.1	22	3.6	0.6		4
O=S(=O)(C1CC1)n1cc(-c2nccc(Nc3cc(N4CCC(O)CC4)c(C#Cc4cnn(CCF)c4)cn3)n2)cn1 [Example 28, 1-(2-((2-(1-(Cyclopropylsulfonyl)-1H-pyrazol-4-yl)pyrimidin-4-yl)amino)-5-((1-(2-fluoroethyl)-1H-pyrazol-4-yl)ethynyl)pyridin-4-yl)piperidin-4-ol]	> 10000	28.1	0.7	2.3	4.9					
Cn1cc(C#Cc2cnc(Nc3ccnc(-c4cnn(S(=O)(=O)C5CC5)c4)n3)cc2N2CCC(CO)CC2)cn1 [Example 29, (1-(2-((2-(1-(Cyclopropylsulfonyl)-1H-pyrazol-4-yl)pyrimidin-4-yl)amino)-5-((1-methyl-1H-pyrazol-4-yl)ethynyl)pyridin-4-yl)piperidin-4-yl)methanol]	8000	28.1	1.8	2.3	2.7					

— patent US11981658B2, “Substituted aminopyridine compounds as EGFR inhibitors” (YUHAN CORPORATION, priority 2021, dated 2024)
